In series [1] the target is T1, Bifunctional epoxide hydrolase 2 (Mus musculus, UniProt P34914).
T1 sequence (P34914 whole entry): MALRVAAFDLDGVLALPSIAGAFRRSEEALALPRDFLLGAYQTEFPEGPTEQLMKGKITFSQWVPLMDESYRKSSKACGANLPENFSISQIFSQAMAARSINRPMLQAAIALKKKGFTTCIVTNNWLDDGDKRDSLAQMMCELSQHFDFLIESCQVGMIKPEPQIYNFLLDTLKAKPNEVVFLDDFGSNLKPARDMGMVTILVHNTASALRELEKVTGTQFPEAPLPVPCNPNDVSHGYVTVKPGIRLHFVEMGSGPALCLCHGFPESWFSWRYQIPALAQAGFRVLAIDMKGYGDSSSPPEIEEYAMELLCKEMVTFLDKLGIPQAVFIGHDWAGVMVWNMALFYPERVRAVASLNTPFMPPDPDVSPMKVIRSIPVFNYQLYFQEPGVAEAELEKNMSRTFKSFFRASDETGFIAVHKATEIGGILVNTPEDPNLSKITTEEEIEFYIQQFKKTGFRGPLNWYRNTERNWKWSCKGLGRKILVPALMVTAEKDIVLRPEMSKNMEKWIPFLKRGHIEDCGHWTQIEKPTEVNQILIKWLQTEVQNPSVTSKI

Series [2] relates to Mus musculus. Nature of the series: Protection against LPS-induced sepsis in C57BL/6J mouse model assessed as delay in death time at 0.5 to 5 mg/kg, ip measured upto 72 hrs. Particulars: dose 0.5-5 mg/kg. In kind it is functional, organism-based.
The nature of series [3]: Toxicity in LPS-induced sepsis C57BL/6J mouse model assessed as effect on survival rate at 0.5 to 5 mg/kg, ip measured upto 72 hrs. In kind it is organism-based. Particulars: in vivo, dose 0.5-5 mg/kg.
Series [4] in a line: Cytotoxicity in HEK293T cells assessed as cell viability at 5 uM incubated for 48 hrs by CCK8 assay relative to control. The class given is toxicity, cell-based, HEK-293T. The note with it: human, read-out: Activity.
Series [5] is described as follows: Cytotoxicity in HEK293T cells assessed as cell viability at 50 uM incubated for 48 hrs by CCK8 assay relative to control. In kind it is toxicity, cell-based, HEK-293T. Particulars: human, read-out: Activity. For orientation: Tetrazolium assays rely on reduction of a dye to a coloured formazan, in cell work by metabolically active cells.
Series [6] is described as follows: Cytotoxicity against human HepG2 cells assessed as cell viability at 5 uM incubated for 48 hrs by CCK8 assay relative to control. In kind it is toxicity, cell-based. Particulars: read-out: Activity.
Series [7] is described as follows: Cytotoxicity against human HepG2 cells assessed as cell viability at 50 uM incubated for 48 hrs by CCK8 assay relative to control. The note with it: read-out: Activity. The class given is toxicity, cell-based.
In series [8] the target is T2, Bifunctional epoxide hydrolase 2 (Homo sapiens, UniProt P34913).
T2 sequence (P34913 whole entry): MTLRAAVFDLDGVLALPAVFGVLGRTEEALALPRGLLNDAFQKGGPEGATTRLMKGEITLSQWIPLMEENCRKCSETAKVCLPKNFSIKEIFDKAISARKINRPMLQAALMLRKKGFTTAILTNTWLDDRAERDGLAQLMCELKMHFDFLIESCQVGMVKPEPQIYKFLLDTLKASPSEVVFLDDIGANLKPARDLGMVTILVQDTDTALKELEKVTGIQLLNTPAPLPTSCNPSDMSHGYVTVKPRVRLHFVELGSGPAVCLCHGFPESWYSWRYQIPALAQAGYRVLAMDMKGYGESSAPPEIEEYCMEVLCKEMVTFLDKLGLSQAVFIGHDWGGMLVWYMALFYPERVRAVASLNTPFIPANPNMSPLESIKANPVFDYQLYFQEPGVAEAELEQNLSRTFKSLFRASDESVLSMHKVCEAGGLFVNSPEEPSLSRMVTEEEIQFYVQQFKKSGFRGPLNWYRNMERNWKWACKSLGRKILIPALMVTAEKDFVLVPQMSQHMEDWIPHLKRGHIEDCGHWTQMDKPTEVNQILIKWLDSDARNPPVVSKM

The subject of series [9] is Mus musculus. Nature of the series: Protection against LPS-induced sepsis in C57BL/6J mouse model assessed as survival rate at 5 mg/kg, iv measured after 24 hrs relative to control. In kind it is functional.
The subject of series [10] is Mus musculus. Nature of the series: Protection against LPS-induced sepsis in C57BL/6J mouse model assessed as survival rate at 5 mg/kg, iv measured after 48 hrs relative to control. The class given is functional.
The test system of series [11] is Mus musculus. The series can be described thus: Protection against LPS-induced sepsis in C57BL/6J mouse model assessed as survival rate at 5 mg/kg, iv measured after 72 hrs relative to control. The class given is functional.
Series [12] has as its system Mus musculus. Nature of the series: Protection against LPS-induced sepsis in C57BL/6J mouse model assessed as […] at 5 mg/kg, iv measured after 32 hrs relative to control. In kind it is functional.

Activity calls are given as the source filed them. No cut-off for these calls is given here.

What is called IC50 is the point on the concentration scale where inhibition reaches its midpoint. The compound `CC(C)CNC(=O)Nc1ccc(/C=C/c2ccc3c(c2)OCO3)cc1` showed an IC50 in [1] of 2.68 nM.
Compound `O=C(NCC1CCOCC1)Nc1cccc(/C=C/c2ccc3c(c2)OCO3)c1` displayed an IC50 in [1] of 2.74 nM.
In the case of `Cc1cc(NC(=O)NCC(C)C)ccc1/C=C/c1ccc2c(c1)OCO2`, in series [1], the 50% inhibitory concentration (IC50) came to 3.23 nM.
In [1], `CC(C)CCNC(=O)Nc1cccc(/C=C/c2ccc3c(c2)OCO3)c1` came in with an IC50 of 23.3 nM.
The compound `CC(C)CNC(=O)Nc1ccc(/C=C/c2ccc3c(c2)OCO3)c(F)c1` yielded a concentration for half-maximal inhibition (IC50) in series [1] of 6.72 nM.
Same read-out and setting: then `Cc1cc(/C=C/c2ccc3c(c2)OCO3)ccc1NC(=O)NCC(C)C`, with 3.21 nM.
Still for that read-out and setting: in the case of `CCC(=O)N1CCN(C(=O)Nc2ccc(/C=C/c3ccc4c(c3)OCO4)cc2)CC1` it was 200 nM; in that of `COc1cc(/C=C/c2cccc(NC(=O)NCC3CCOCC3)c2)cc(OC)c1`, 91.3 nM.
Compound `CC(C)CNC(=O)Nc1cccc(/C=C/c2ccc3c(c2)OCO3)c1` displayed an IC50 in [1] of 2.03 nM.
For `CC(C)CCNC(=O)Nc1ccc(/C=C/c2ccc3c(c2)OCO3)cc1`, the IC50 in series [1] is 1.22 nM.
For the compound `O=C(NCC1CCOCC1)Nc1ccc(/C=C/c2ccc3c(c2)OCO3)cc1`, the result in the series on Mus musculus [2] was Active. The Activity entry in [3] was “Non-Toxic”. Besides, the viability at 48 h, 5 µM is 98.2% in [4] and 82.8% in series [6]. The values for the viability at 48 h, 50 µM in series [5] and in [7] were 84.3% and 69%, respectively. Further, the IC50 in series [1] was found to be 1.63 nM; in series [8] it was 4.78 nM.
Take `C[C@@H]1C[C@H]2[C@@H]3CCC4=CC(=O)C=C[C@]4(C)[C@@]3(F)[C@@H](O)C[C@]2(C)[C@@]1(O)C(=O)CO` [DEXAMETHASONE]: the survival at 5 mg/kg in the series on Mus musculus [9], in the series with Mus musculus [10] and in the series with Mus musculus [11] was 100% throughout.
Consider `COc1ccc(/C=C/c2ccc(NC(=O)NCC(C)C)cc2)cc1O`, for which, in series [1], the half-inhibitory concentration (IC50) is 4.76 nM.
Compound `O=C(Cc1ccncc1)Nc1cccc(/C=C/c2ccc(NC(=O)NCC3CCOCC3)cc2)c1` returned an IC50 in series [1] of 1.42 nM.
Regarding `CC(C)CNC(=O)Nc1ccc(/C=C/c2ccc3c(c2)OCO3)c(Cl)c1`, the IC50 in series [1] worked out at 4.59 nM.
In series [1], `O=C(NCC1CCOCC1)Nc1ccc(/C=C/c2cccc(C(=O)NCc3ccccn3)c2)cc1` showed an IC50 of 5.78 nM.
Turning to `O=C(NCC1CCOCC1)Nc1ccc(/C=C/c2cccc(NC(=O)c3ccccn3)c2)cc1`, the IC50 in series [1] is 8.42 nM.
Consider `O=C(Cn1ccc2ccccc21)Nc1cccc(/C=C/c2ccc(NC(=O)NCC3CCOCC3)cc2)c1`, for which the half-inhibitory concentration (IC50) in [1] is 1.26 nM.
Regarding `CN1CCN(C(=O)Nc2ccc(/C=C/c3ccc4c(c3)OCO4)cc2)CC1`, in series [1], the IC50 is 2740 nM.
As for `CN1CCC(NC(=O)Nc2ccc(/C=C/c3ccc4c(c3)OCO4)cc2)CC1`, in series [1], the 50% inhibitory concentration (IC50) was 2600 nM.
Consider `O=C(Cn1c2ccccc2c2ccccc21)Nc1cccc(/C=C/c2ccc(NC(=O)NCC3CCOCC3)cc2)c1`, for which the IC50 in series [1] is 3.31 nM.
As to `COc1cc(/C=C/c2ccc(NC(=O)NCC3CCN(C)CC3)cc2)cc(OC)c1`, it took 908 nM to reach half-maximal inhibition in series [1] (IC50).
Still for that read-out and setting: in the case of `COc1cc(/C=C/c2ccc(NC(=O)N(C)C)cc2)cc(OC)c1` it was 5200 nM; in that of `CCC(=O)N1CCC(NC(=O)Nc2ccc(/C=C/c3ccc4c(c3)OCO4)cc2)CC1`, 8.02 nM.
In turn, `COc1cc(/C=C/c2ccc(NC(=O)NCC(C)C)cc2)cc(OC)c1` yielded an IC50 in series [1] of 1.92 nM.
Still for that read-out and setting: in the case of `COc1cc(/C=C/c2ccc(CNC(=O)NCC(C)C)cc2)cc(OC)c1` it was 14.3 nM; in that of `COc1cc(/C=C/c2ccc(NC(=O)NCC3CCOCC3)cc2)cc(OC)c1`, 2.53 nM.
Consider `CC(C)CNC(=O)Nc1ccc(/C=C/c2ccc3c(c2)OCO3)cc1F`, for which half-maximal inhibition in series [1] (IC50) required 1.24 nM.
Still for that read-out and setting: then `O=C(Cc1ccccn1)Nc1ccc(/C=C/c2ccc(NC(=O)NCC3CCOCC3)cc2)cc1`, with 3.45 nM.
For the compound `O=C(Cc1cccnc1)Nc1cccc(/C=C/c2ccc(NC(=O)NCC3CCOCC3)cc2)c1`, the values for the survival at 5 mg/kg in the series on Mus musculus [9], in the series on Mus musculus [10] and with Mus musculus [11] were 70%, 20% and 0%, respectively. Moreover, in the series on Mus musculus [12], the Activity was 0%. The IC50 in series [1] amounted to 2.03 nM.
With `O=C(Cc1ccccn1)Nc1cccc(NC(=O)c2ccc(NC(=O)NCC3CCOCC3)cc2)c1`, in series [1], the IC50 amounted to 67.4 nM.
As for `O=C(Cc1ccc2ncccc2c1)Nc1cccc(/C=C/c2ccc(NC(=O)NCC3CCOCC3)cc2)c1`, the values for the survival at 5 mg/kg with Mus musculus [9], with Mus musculus [10] and in the series with Mus musculus [11] were 80%, 0% and 0%, respectively. The Activity with Mus musculus [12] is 0%. In series [1], this compound registered an IC50 of 1.4 nM.
Turning to `COc1cc(/C=C/c2cccc(NC(=O)NCC(C)C)c2)cc(OC)c1`, the IC50 in [1] was 44.5 nM.
On to `CC[C@H](C)C(=O)N1CCC(NC(=O)Nc2ccc(OC(F)(F)F)c(F)c2)CC1`, for which the survival at 5 mg/kg with Mus musculus [9] is 30%; in the series on Mus musculus [10], 0%; with Mus musculus [11], 0%.

The values are drawn from ChEMBL document CHEMBL5543072, “Discovery of a novel lead characterized by a stilbene-extended scaffold against sepsis as soluble epoxide hydrolase inhibitors” (Eur J Med Chem, 2024).
